In paper PMC12810539, “EGFR-targeted gadolinium contrast agents for enhanced molecular magnetic resonance imaging of tumors” (The Journal of Biological Chemistry, 2025):

Tests used:
MDA-MB-231 cells = assay: Cellular Gd content after incubation (cell binding assay, ICP-MS); type: cell-based, human; conditions: MDA-MB-231 (EGFR-overexpressing), 50 μM Gd, 37 °C, mean ± SD (n = 6)
Experimental: (§1) The binding of EBP-Gd-DO3A and EBP-(Gd-DO3A)3 to the receptor on MDA-MB-231, A549, SGC-7901, SW480, and U138 MG cells was compared with that of Gadovist. The cells were seeded into 100 mm × 20 mm cell culture dishes at a density of approximately 1 × 10^6 cells per dish and incubated with EBP-Gd-DO3A, EBP-(Gd-DO3A)3 or Gadovist at a Gd concentration of 50 μM for 1 h or 12 h at 37 °C. After incubation, the cells were washed once with PBS followed by mild acidic buffer (50 mM glycine, 150 mM NaCl (pH 3.0)) at 4 °C for 5 min. Then, the cells were washed twice with PBS, and the cellular Gd content was measured by ICP-MS.
(§2) Cells were seeded into 100 mm×20 mm cell culture dishes at a density of approximately 1×10^6 cells per dish and incubated with EBP-Gd-DO3A, EBP-(Gd-DO3A)3 or Gadovist® at Gd concentrations of 50 μM at 37°C for the indicated time points. The Gd content in the cell lysates was quantified by ICP-MS. The values are presented as the mean ± SD (n = 6).

U138MG cells = assay: as above; type: cell-based, human; conditions: U138MG (non-EGFR-overexpressing), 50 μM Gd, 37 °C, mean ± SD (n = 6)
Experimental: as §1, §2

SW480 cells = assay: as above; type: cell-based, human; conditions: SW480, 50 μM Gd, 37 °C, mean ± SD (n = 6)
Experimental: as §1, §2

A549 cells = assay: as above; type: cell-based, human; conditions: A549, 50 μM Gd, 37 °C, mean ± SD (n = 6)
Experimental: as §1, §2

SGC-7901 cells = assay: as above; type: cell-based, human; conditions: SGC-7901, 50 μM Gd, 37 °C, mean ± SD (n = 6)
Experimental: as §1, §2

EGFR = target: T1, EGFR (Homo sapiens, UniProt P00533); assay: EGFR inhibition assay (competitive cell binding with anti-EGFR antibody C225); type: cell-based; conditions: all tested cell lines, 5 μg/ml C225 preincubation 12 h, then 50 μM Gd for 1 h, ICP-MS
T1 construct: endogenous in cells; host or cells: MDA-MB-231, A549, SGC-7901, SW480, U138 MG (human tumour cell lines, CCTCC)
Experimental: To further verify the receptor-binding affinity and specificity of EBP-Gd-DO3A and EBP-(Gd-DO3A)3, a competitive cell-binding assay was carried out. MDA-MB-231, A549, SGC-7901, SW480, and U138 MG cells were preincubated with fresh serum-free medium containing 5 μg/ml anti-EGFR monoclonal antibody C225 (ImClone Systems, Inc., New York, NY) for 12 h at 37 °C. The culture supernatant was removed from the resulting solution, followed by the addition of EBP-Gd-DO3A, EBP-(Gd-DO3A)3, or Gadovist at a Gd concentration of 50 μM for the indicated time points. The cellular Gd content was measured by ICP-MS as described above, and the C225-induced reduction in the cellular Gd accumulation was used to calculate an inhibition index of cellular Gd uptake ([34]).

[1] = tested on: MDA-MB-231, A549, SGC-7901, SW480 and U138 MG cells; assay: In vitro MR imaging of labelled tumor cells, with and without C225; type: cell-based, human; conditions: for MR enhancement effect in MDA-MB-231, A549, SGC-7901 and SW480 tumor cells / MR enhancement effect in U138MG cell line: 37 °C, 11.7 T MR microimaging of cell pellets; for MRI signal of cells pretreated with versus without C225: C225 preincubation 12 h, then 50 μM Gd for 24 h, all tested cell lines
Experimental: For the in vitro MRI assay, MDA-MB-231, A549, SGC-7901, SW480, and U138 MG cells were seeded into 100 mm × 20 mm cell culture dishes at a density of approximately 1 × 10^6 cells per dish and incubated with EBP-Gd-DO3A, EBP-(Gd-DO3A)3 or Gadovist at a Gd concentration of 50 μM for 24 h at 37 °C. After the completion of the labelling, the cells were washed with PBS 3 times and collected into 1.5 mm-i.d. capillary tubes that were centrifuged at 1400 rpm for 5 min to enable cells to be well packed in the bottom of the capillary for the MRI. The in vitro MRI experiments were performed on an 11.7 T Bruker NMR spectrometer that functioned as an MR microimaging system with a maximum gradient strength of 1.0 T/m. A linear 15-mm-i.d birdcage coil was used for radiofrequency transmission and signal reception. The parameters used for acquiring images were TR = 500 ms, TE = 5.2 ms, FOV = 12 × 12 mm^2, matrix = 96 × 96, flip angle = 90°, slice thickness/gap = 0.8/0.2 mm and number of averages = 4.
The C225-preincubated cells described above were imaged with MRI to observe the contrast enhancement effects. The method used for the MR imaging of cell pellets was the same as that for the in vitro MR imaging of the conjugates described above.

Q: CMYIEALDKYAC [EBP-(Gd-DO3A)3] was tested. Which “Concentration of cellular Gd” value (MDA-MB-231 cells; 1 h) did it give?
A: The value was 1.17 ± 0.12 μM/10^6 cells.

Q: And the “Concentration of cellular Gd” value (MDA-MB-231 cells; 12 h)?
A: The value was 2.79 ± 0.18 μM/10^6 cells.

Q: And the “Concentration of cellular Gd” value (U138MG cells; 1 h)?
A: The value was 0.15 ± 0.04 μM/10^6 cells.

Q: What about the “Concentration of cellular Gd” value (U138MG cells; 12 h) of the same compound?
A: Its value is 0.74 ± 0.17 μM/10^6 cells.

Q: What about the “Concentration of cellular Gd” value (SW480 cells; 1 h) of the same compound?
A: The value was 1.05 ± 0.09 μM/10^6 cells.

Q: And the “Concentration of cellular Gd” value (SW480 cells; 12 h)?
A: The value was 2.65 ± 0.11 μM/10^6 cells.

Q: What about the “Concentration of cellular Gd” value (A549 cells; 1 h) of the same compound?
A: Its value is 1.04 ± 0.06 μM/10^6 cells.

Q: What about the “Concentration of cellular Gd” value (A549 cells; 12 h) of the same compound?
A: Its value is 2.66 ± 0.15 μM/10^6 cells.

Q: And the “Concentration of cellular Gd” value (SGC-7901 cells; 1 h)?
A: Its value is 1.01± 0.08 μM/10^6 cells.

Q: What about the “Concentration of cellular Gd” value (SGC-7901 cells; 12 h) of the same compound?
A: Its value is 2.31 ± 0.14 μM/10^6 cells.

Q: What about the “cellular Gd accumulation with versus without C225 pretreatment” value (EGFR) of the same compound?
A: The value was “reduced”.

Q: What about the “MR enhancement effect in MDA-MB-231, A549, SGC-7901 and SW480 tumor cells” value ([1]; 50 μM Gd, 24 h) of the same compound?
A: Its value is “strong enhancement effects”.

Q: And the “MR enhancement effect in U138MG cell line” value ([1]; 50 μM Gd, 24 h)?
A: The value was “much weaker enhancement effect”.

Q: What about the “MRI signal of cells pretreated with versus without C225” value (from here on “MRI signal … with versus without C225”) [1] of the same compound?
A: The value was “reduced”.

Q: Which “Concentration of cellular Gd” value (MDA-MB-231 cells; 1 h) does the source give for O=C([O-])CN1CCN(CC(=O)[O-])CCN([C@H](CO)[C@H](O)CO)CCN(CC(=O)[O-])CC1.[Gd+3] (racemic) [Gadovist, reference compound] here?
A: Its value is 0.18 ± 0.06 μM/10^6 cells.

Q: And the “Concentration of cellular Gd” value (MDA-MB-231 cells; 12 h)?
A: Its value is 0.13 ± 0.02 μM/10^6 cells.

Q: And the “Concentration of cellular Gd” value (U138MG cells; 1 h)?
A: Its value is 0.20 ± 0.04 μM/10^6 cells.

Q: What about the “Concentration of cellular Gd” value (U138MG cells; 12 h) of the same compound?
A: Its value is 0.24 ± 0.05 μM/10^6 cells.

Q: What about the “Concentration of cellular Gd” value (SW480 cells; 1 h) of the same compound?
A: Its value is 0.19 ± 0.07 μM/10^6 cells.

Q: What about the “Concentration of cellular Gd” value (SW480 cells; 12 h) of the same compound?
A: The value was 0.20 ± 0.07 μM/10^6 cells.

Q: What about the “Concentration of cellular Gd” value (A549 cells; 1 h) of the same compound?
A: The value was 0.25± 0.05 μM/10^6 cells.

Q: And the “Concentration of cellular Gd” value (A549 cells; 12 h)?
A: Its value is 0.18 ± 0.04 μM/10^6 cells.

Q: What about the “Concentration of cellular Gd” value (SGC-7901 cells; 1 h) of the same compound?
A: The value was 0.15 ± 0.05 μM/10^6 cells.

Q: What about the “Concentration of cellular Gd” value (SGC-7901 cells; 12 h) of the same compound?
A: The value was 0.16 ± 0.03 μM/10^6 cells.

Q: What about the “cellular Gd accumulation with versus without C225 pretreatment” value (EGFR) of the same compound?
A: Its value is “No significant difference”.

Q: And the “T1 signal intensity in cells with different levels of EGFR expression” value ([1]; 50 μM Gd, 24 h, ROI analysis, p > 0.05)?
A: The value was “not significantly different”.

Q: What about the “MRI signal … with versus without C225” value [1] of the same compound?
A: Its value is “no significant difference”.

Q: Which “Concentration of cellular Gd” value (MDA-MB-231 cells; 1 h) does the source give for CMYIEALDKYAC [EBP-Gd-DO3A] here?
A: Its value is 0.43 ± 0.05 μM/10^6 cells.

Q: And the “Concentration of cellular Gd” value (MDA-MB-231 cells; 12 h)?
A: Its value is 1.16 ± 0.10 μM/10^6 cells.

Q: And the “Concentration of cellular Gd” value (U138MG cells; 1 h)?
A: Its value is 0.09 ± 0.01 μM/10^6 cells.

Q: And the “Concentration of cellular Gd” value (U138MG cells; 12 h)?
A: Its value is 0.25 ± 0.07 μM/10^6 cells.

Q: What about the “Concentration of cellular Gd” value (SW480 cells; 1 h) of the same compound?
A: Its value is 0.31 ± 0.06 μM/10^6 cells.

Q: And the “Concentration of cellular Gd” value (SW480 cells; 12 h)?
A: The value was 1.01 ± 0.13 μM/10^6 cells.

Q: And the “Concentration of cellular Gd” value (A549 cells; 1 h)?
A: The value was 0.37 ± 0.07 μM/10^6 cells.

Q: What about the “Concentration of cellular Gd” value (A549 cells; 12 h) of the same compound?
A: Its value is 1.24 ± 0.19 μM/10^6 cells.

Q: What about the “Concentration of cellular Gd” value (SGC-7901 cells; 1 h) of the same compound?
A: Its value is 0.35 ± 0.04 μM/10^6 cells.

Q: And the “Concentration of cellular Gd” value (SGC-7901 cells; 12 h)?
A: The value was 1.12 ± 0.16 μM/10^6 cells.

Q: And the “cellular Gd accumulation with versus without C225 pretreatment” value (EGFR)?
A: The value was “reduced”.

Q: What about the “MR enhancement effect in MDA-MB-231, A549, SGC-7901 and SW480 tumor cells” value ([1]; 50 μM Gd, 24 h) of the same compound?
A: Its value is “strong enhancement effects”.

Q: And the “MR enhancement effect in U138MG cell line” value ([1]; 50 μM Gd, 24 h)?
A: The value was “much weaker enhancement effect”.

Q: What about the “MRI signal … with versus without C225” value [1] of the same compound?
A: The value was “reduced”.
